Measurements from paper PMC12196251, “Synthesis of New DltA Inhibitors and Their Application as Adjuvant Antibiotics to Re-Sensitize Methicillin-Resistant Staphylococcus aureus” (Molecules, 2025).
Several values for one entry are separate records, joined by “and”; a condition that tells them apart may be missing. Identical values can stand only once. Counter-ions that a name gives are not always drawn. Like-named read-outs stand apart in the source and are kept apart here.

Experiments:
[1] = biological target: T1, recombinant DltA from E. faecalis (Enterococcus faecalis, UniProt Q830N0); assay: DltA enzyme inhibition, PPi release coupled-enzyme assay; assay type: biochemical
T1 construct: made in house; host or cells: E. coli
T1 sequence (Q830N0 1-506): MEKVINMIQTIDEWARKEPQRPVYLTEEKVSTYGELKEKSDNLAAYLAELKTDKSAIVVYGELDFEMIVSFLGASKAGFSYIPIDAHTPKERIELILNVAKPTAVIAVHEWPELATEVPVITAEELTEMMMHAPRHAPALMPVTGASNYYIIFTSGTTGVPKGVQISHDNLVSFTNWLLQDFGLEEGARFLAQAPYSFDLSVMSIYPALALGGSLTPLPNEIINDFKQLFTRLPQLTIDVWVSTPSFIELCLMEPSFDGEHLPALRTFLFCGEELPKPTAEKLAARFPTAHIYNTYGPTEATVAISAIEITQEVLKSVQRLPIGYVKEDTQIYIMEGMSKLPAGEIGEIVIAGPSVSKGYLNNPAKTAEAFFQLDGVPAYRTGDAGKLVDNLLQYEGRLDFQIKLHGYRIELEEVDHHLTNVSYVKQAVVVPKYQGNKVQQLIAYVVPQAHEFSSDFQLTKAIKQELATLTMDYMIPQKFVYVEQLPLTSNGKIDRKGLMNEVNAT
Procedure: (§1) All new compounds were then evaluated in vitro for enzyme inhibition against recombinant DltA from E. faecalis or S. epidermis. Half-maximal inhibitory concentrations (IC50) were then determined by measuring the amount of PPi released at different inhibitor concentrations (Table 2). […] We noticed the DltA enzyme tolerated the presence of various modifications on the 2′-position, but the activity was inversely related to the size of the introduced group. […] Despite a good predicted binding affinity (−8.7 Kcal/mol), we hypothesize that the lower activity could be explained by the fact that the squaramide nitrogen atom might not be under its anionic form, as is the case with sulfamate 1.
(§2) The DltA-catalyzed ATP-hydrolysis reaction was monitored in vitro via PPi release (DltA +D-alanine +ATP → DltA-DAla-AMP +PPi) using a coupled-enzyme assay. The purified DltA was pretreated with DltC purified from E. coli to clear D-Ala-AMP already present in the enzyme preparation after expression in E. coli. Holo-DltC is the natural protein partner of DltA, and DltC purified from E. coli BL21 (DE3) contained 51% of this active form of DltC as determined by HPLC analysis. DltA was pretreated with DltC (ratio 1:1.2), incubated for 30 min at 37 °C and 30 min at 4 °C. Three successive washes were realized on Amicon Ultra-2 Centrifugal Filter Unit—Ultracel 30 membrane 30 kDa MWCO (Merck, Darmstadt, Germany) with elution buffer EB at 4 °C. The components of the coupled enzyme assay included 1.5 μM pre-treated DltA, 20 μM of ATP, and 14 μM of D-alanine. The half-maximal inhibitory concentration (IC50) of potential DltA inhibitors was determined by the addition of different concentrations of the synthesized molecules. PPi release was determined using the PiPer—Pyrophosphate assay kit (Invitrogen, Waltham, MA, USA) according to the recommendation of the supplier. Reactions were carried out in 96-well Chimney Style, non-binding Microplates with μClear Film Bottom (Greiner Bio-one, Frickenhausen, Germany). Plates were incubated at 37 °C for 5 h and read in a FlexStation 3 Multi-Mode plate reader (Molecular Devices, Silicon Valley, CA, USA), with λ excitation of 530 nm and λ emission of 590 nm. Experiments were conducted in sextuplicate, and the IC50 was determined by linear regression of the curve.

[2] = biological target: T2, recombinant DltA from S. epidermidis (Staphylococcus epidermidis, UniProt Q5HQN0); assay: as above; assay type: biochemical
T2 construct: made in house; host or cells: E. coli
T2 sequence (Q5HQN0 1-485): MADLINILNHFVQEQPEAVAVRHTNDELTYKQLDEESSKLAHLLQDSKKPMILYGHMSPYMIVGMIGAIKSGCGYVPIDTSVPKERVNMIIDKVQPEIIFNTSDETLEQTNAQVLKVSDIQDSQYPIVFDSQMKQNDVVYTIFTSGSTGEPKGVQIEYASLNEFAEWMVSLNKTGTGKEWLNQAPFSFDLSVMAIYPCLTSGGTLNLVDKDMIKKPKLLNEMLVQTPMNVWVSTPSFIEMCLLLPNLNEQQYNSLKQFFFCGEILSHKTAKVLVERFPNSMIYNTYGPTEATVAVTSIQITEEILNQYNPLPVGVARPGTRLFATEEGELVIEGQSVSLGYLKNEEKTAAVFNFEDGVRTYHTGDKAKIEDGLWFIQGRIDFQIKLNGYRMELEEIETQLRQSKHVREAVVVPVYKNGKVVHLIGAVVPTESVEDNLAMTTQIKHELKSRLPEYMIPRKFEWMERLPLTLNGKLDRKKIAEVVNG
Procedure: as §1, §2

[3] = biological target: DltA; set-up: method as in PMID 15955059; conditions: DltA inhibitor; cited from earlier work
[4] = system: MRSA clinical isolates; set-up: method as in PMID 31339997, PMID 34450626, PMID 40116514; conditions: S. aureus (MRSA); in presence of inhibitor 1; previously reported; cited from earlier work
[5] = system: D-alanyl ester of the MRSA cell wall; assay: Quantification of D-alanyl ester in the bacterial cell wall; assay type: cell-based, S. aureus; conditions: inhibitor at 1 mM, value (spread)
Procedure: (§3) All these compounds were also tested […] against MRSA clinical isolates. […] The minimum inhibitory concentrations (MICs) of imipenem (IPM) were next determined in the absence or presence of 1 mM of the different DltA inhibitors to evaluate their potential to re-sensitize MRSA to this β-lactam (Table 2). […] To clarify this hypothesis, quantification of D-alanyl ester of the MRSA cell wall was performed as previously described in the presence of inhibitors (Table 2). […] These new series represent a promising structure entry not reported yet for the inhibition of DltA and the re-sensitization of bacteria toward known antibiotics.
Ester-linked D-alanines were quantified as described previously, with the following modifications. Cultures were grown in 5 mL of BHI supplemented with DltA inhibitor to a final concentration of 0.05, 0.1, 0.25, 0.5, 0.75, or 1 mM for 16 h at 37 °C under shaking (120 rpm). Briefly, the quantification is based on the oxidation of a chromogen by H2O2 generated when free D-alanines are oxidized by a D-amino acid oxidase. Three independent experiments with duplicate samples were performed.

[6] = system: MRSA clinical isolates; assay: MIC of imipenem against MRSA in absence or presence of DltA inhibitor; assay type: cell-based, S. aureus; conditions: in presence of 1 mM of the DltA inhibitor; for MIC: Staphylococcus aureus, MRSA
Procedure: as §3
Colonies from BHI agar plates were suspended in saline solution (0.9% NaCl) and adjusted to an OD600 of 0.5. For growth kinetics determination, 96-well microplates (Starlab, Orsay, France) containing 200 μL of fresh BHI medium were inoculated with bacterial suspensions to an OD600 of 0.02 with a wide range of DltA inhibitors (from 0 to 2 mM). Plates were incubated at 37 °C with shaking (orbital amplitude of 3 mm) in a microplate reader (InfiniteM Nano, Tecan, Seoul, Republic of Korean). OD600nm was measured every 10 min for 24 h. Determination of MIC/MBC of antibiotics and bacterial survival assays were performed as previously described using BHI medium. The DltA inhibitor was diluted in pure water and added to the growth medium to a final concentration of 0, 0.1, 0.25, 0.5, 0.75, or 1 mM.

[7] = biological target: T1, recombinant DltA from E. faecalis; set-up: method as in doi:10.1002/ejoc.202300258; conditions: previous reported work; cited from earlier work
[8] = S. aureus (MRSA), read-out: MIC of IPM
[9] = read-out: MIC of IPM, S. aureus (MRSA)

Structure (SMILES) | IC50 [1] | IC50 [2] | Ki [3] | MIC of IPM [4] | Reduction in D-Ala Ester Residues [5] | MIC [6, 8] | IC50 [7] | MIC [6, 9] | MIC of IPM ([6]; S. aureus (MRSA))
C[C@@H](N)C(=O)NS(=O)(=O)OC[C@H]1O[C@@H](n2cnc3c(N)ncnc32)[C@H](O)[C@@H]1O [Compound 1, reference compound] | 2300 nM | 2400 nM | 200 nM | 0.25 µg/mL | 86.7% and 86.7 (10.5) % |  |  |  | 
CC(N)C(=O)NS(=O)(=O)NCC1OC(n2cnc3c(N)ncnc32)C(O)C1O [Compound 30, (R)-2-amino-N-(N-(((2R,3S,4R,5R)-5-(6-amino-9H-purin-9-yl)-3,4-dihydroxytetrahydrofuran-2-yl)methyl)sulfamoyl)propenamide salt] | 1800 nM | 2000 nM |  |  | 80.9% and 80.9 (18.4) % | 1 µg/mL |  |  | 
CC(N)C(=O)NS(=O)(=O)NCC1OC(n2cnc3c(N)ncnc32)C(F)C1O [Compound 31, (R)-2-amino-N-(N-(((2R,3R,4R,5R)-5-(6-amino-9H-purin-9-yl)-4-fluoro-3-hydroxytetrahydrofuran-2-yl)methyl)sulfamoyl)propenamide salt] | 3200 nM |  |  |  | 0% | 32 µg/mL |  |  | 
C[C@@H](N)C(=O)c1cn(C/C(CO)=C(\F)Cn2cnc3c(N)ncnc32)nn1 [Compound 39] |  |  |  |  | 0% |  | 7400 nM | 16 µg/mL | 
C[C@@H](N)C(=O)c1cn(C[C@H]2O[C@@H](n3cnc4c(N)ncnc43)[C@H](O)[C@@H]2O)nn1 [Compound 40] |  |  |  |  |  |  | 4500 nM | 8 µg/mL | 
C[C@@H](N)C(=O)c1cn(C[C@H]2O[C@@H](n3cnc4c(N)ncnc43)[C@H](F)[C@@H]2O)nn1 [Compound 50, (R)-2-amino-1-(1-(((2R,3R,4R,5R)-5-(6-amino-9H-purin-9-yl)-4-fluoro-3-hydroxytetrahydrofuran-2-yl)methyl)-1H-1,2,3-triazol-4-yl)propan-1-one salt] | 14700 nM |  |  |  | 8.6 (1.1) % |  |  | 16 to 64 µg/mL | 32 µg/mL
